From US11919901B2 (Syndax Pharmaceuticals, Inc., priority 2021, dated 2024)

How the values were obtained:
[1] = test system: MV4-11 cells; assay: Cell proliferation assay MV4;11 (CellTiter-Glo, 72 hours); type: cell-based; details: Homo sapiens; MV4;11 leukemia cell line, 72 hours; read-out: MV4; 11 IC50
Description: Compounds were evaluated for its capacity to inhibit the proliferation of the MLLr leukemia cell line MV4-11 that harbors an MLL1-AF4 fusion protein. MV4-11 cells were cultured for 72 hours with limiting dilutions of compounds and viability was measured using CellTiter-Glo.
Compounds were dissolved to obtain as 10 mM solution in DMSO. The stock was diluted 1:5 to the top concentration of 2 mM in 100% DMSO. For IC50 determination, serial 1:3.16 dilutions were prepared in 100% DMSO by diluting 20 μL into 43.5 μL of DMSO for 8 concentrations. Each prepared DMSO solution were further diluted 1:500 in the cell culture media to obtain the 2× dosing solutions. The final concentrations of tested compounds in the cell culture media ranged from 0.632 nM to 2000 nM.
MV4-11 cells were cultured in IMDM with 10% FBS and 1× Penicillin-Streptomycin at 5% CO2 and 37° C. A cell suspension was prepared containing 15,000 cells/ml in the culture medium and 100 μL of this suspension was added per well to a 96-well cell culture plate. Then, 100 μL of 2× dosing media containing test compounds were added bringing the total volume to 200 μL. These cells were cultured for 72 hours at 37° C. and 5% CO2 in a humidified incubator.
After 72 hours, the cultured cells were mixed and 100p L was transferred to a 96-well black plate. Cell Titer Glo (100 μl) was then added to this plate. The plate was mixed with shaking for 15 mins at RT, the luminescence was then measured using Tecan Spark 20M spectrophotometer. Cell Viability (%) was determined by RLU of test/RLU average vehicle control*100 and % max inhibition was determined by 100−(% cell viability remaining at the top concentration of compound).

[2] = biological target: hERG (Homo sapiens (Human), UniProt Q12809); assay: Patch clamp assay (hERG tail currents, whole-cell); type: cell-based; details: hERG transfected HEK 293 cells; for hERG % Remaining 30 μM: 30 μM compound
Chain of hERG (Q12809 whole entry): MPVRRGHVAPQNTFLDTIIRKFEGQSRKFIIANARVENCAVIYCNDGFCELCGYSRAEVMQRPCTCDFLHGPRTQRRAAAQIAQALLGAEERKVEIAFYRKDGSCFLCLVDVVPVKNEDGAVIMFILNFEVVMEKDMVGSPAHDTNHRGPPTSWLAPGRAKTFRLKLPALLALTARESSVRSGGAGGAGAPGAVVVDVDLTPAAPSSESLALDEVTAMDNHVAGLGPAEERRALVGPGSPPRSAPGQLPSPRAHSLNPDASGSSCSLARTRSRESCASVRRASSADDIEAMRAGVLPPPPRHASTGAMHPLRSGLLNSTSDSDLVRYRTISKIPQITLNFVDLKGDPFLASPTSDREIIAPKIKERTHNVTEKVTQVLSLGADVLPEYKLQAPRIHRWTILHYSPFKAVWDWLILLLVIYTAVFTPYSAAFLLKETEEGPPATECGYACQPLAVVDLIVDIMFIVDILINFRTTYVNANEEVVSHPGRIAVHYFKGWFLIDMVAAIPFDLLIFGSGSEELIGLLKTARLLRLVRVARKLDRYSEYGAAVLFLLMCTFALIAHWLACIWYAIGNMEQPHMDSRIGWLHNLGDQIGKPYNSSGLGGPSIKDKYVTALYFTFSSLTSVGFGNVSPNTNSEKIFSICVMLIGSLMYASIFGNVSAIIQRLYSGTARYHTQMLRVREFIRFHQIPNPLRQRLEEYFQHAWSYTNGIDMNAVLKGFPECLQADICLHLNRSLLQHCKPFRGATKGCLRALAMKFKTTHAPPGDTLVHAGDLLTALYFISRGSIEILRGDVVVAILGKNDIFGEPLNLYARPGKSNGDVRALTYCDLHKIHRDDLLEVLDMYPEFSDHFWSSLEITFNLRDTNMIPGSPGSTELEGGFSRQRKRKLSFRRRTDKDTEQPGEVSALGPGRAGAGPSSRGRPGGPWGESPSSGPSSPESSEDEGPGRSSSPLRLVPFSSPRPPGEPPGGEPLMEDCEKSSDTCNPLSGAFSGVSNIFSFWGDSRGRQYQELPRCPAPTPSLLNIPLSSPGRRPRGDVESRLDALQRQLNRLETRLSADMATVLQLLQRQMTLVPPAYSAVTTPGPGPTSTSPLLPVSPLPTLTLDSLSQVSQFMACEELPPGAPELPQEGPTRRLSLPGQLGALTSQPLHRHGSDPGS

[3] = biological target: Menin-MLL (Homo sapiens (Human), UniProt O00255); assay: Determination of binding constants (Ki) to Menin-MLL (HTRF); details: HTRF, 0.25 nM H-FL-Menin, 3.2 nM FITC-MLL-4-43, 24 hr incubation; for Ki: read-out: Menin-MLL Ki HTRF Assay: Ki
Chain of Menin-MLL (O00255 whole entry): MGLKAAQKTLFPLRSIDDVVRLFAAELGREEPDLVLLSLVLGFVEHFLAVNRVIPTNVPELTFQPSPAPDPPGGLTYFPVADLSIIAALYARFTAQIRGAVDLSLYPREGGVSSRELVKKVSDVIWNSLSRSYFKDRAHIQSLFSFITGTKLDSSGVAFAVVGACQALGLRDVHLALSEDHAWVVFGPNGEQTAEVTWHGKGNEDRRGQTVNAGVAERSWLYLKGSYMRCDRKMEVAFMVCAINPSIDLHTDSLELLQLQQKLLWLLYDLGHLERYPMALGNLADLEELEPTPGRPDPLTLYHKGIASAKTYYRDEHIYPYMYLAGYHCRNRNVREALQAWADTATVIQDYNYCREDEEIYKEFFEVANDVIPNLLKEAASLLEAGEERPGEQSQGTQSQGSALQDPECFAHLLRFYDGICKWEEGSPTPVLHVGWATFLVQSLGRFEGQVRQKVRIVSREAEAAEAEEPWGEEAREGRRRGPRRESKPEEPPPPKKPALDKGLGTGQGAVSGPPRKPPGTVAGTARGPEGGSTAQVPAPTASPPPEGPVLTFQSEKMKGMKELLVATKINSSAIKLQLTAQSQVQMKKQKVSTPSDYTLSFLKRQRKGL

Row | Structure (SMILES) | IC50 [1] [nM] | further results
1 | CNS(=O)(=O)N[C@H]1CC[C@H](CN2CCC3(CC2)CN(c2ncncc2Oc2ccc(F)cc2C(=O)N(C(C)C)C2CC2)C3)OC1 (stereo in doubt) [Example 146, N-Cyclopropyl-5-fluoro-N-isopropyl-2-((4-(7-(((2R,5S)-5-((N-methylsulfamoyl)amino)tetrahydro-2H-pyran-2-yl)methyl)-2,7-diazaspiro[3.5]nonan-2-yl)pyrimidin-5-yl)oxy)benzamide] | < 100 | –
2 | CCNS(=O)(=O)N[C@H]1CC[C@H](CN2CCC3(CC2)CN(c2ncnnc2Oc2ccc(F)cc2C(=O)N(CC(F)(F)F)C(C)C)C3)OC1 (stereo in doubt) [Example 193, 2-((5-(7-(((2R,5S)-5-((N-Ethylsulfamoyl)amino)tetrahydro-2H-pyran-2-yl)methyl)-2,7-diazaspiro[3.5]nonan-2-yl)-1,2,4-triazin-6-yl)oxy)-5-fluoro-N-isopropyl-N-(2,2,2-trifluoroethyl)benzamide] | < 100 | –
3 | CC(C)N(CC(F)(F)F)C(=O)c1cc(F)ccc1Oc1nncnc1N1CC2(CCN(C[C@H]3CC[C@H](NS(=O)(=O)N4CCC4)CO3)CC2)C1 (stereo in doubt) [Example 194, 2-((5-(7-(((2R,5S)-5-(Azetidine-1-sulfonamido)tetrahydro-2H-pyran-2-yl)methyl)-2,7-diazaspiro[3.5]nonan-2-yl)-1,2,4-triazin-6-yl)oxy)-5-fluoro-N-isopropyl-N-(2,2,2-trifluoroethyl)benzamide] | < 100 | –
4 | CC(C)N(CC(F)F)C(=O)c1cc(F)ccc1Oc1cncnc1N1CC2(CCN(C[C@@H]3CC[C@@H](NS(=O)(=O)c4nn(C)cc4F)CO3)CC2)C1 [Compound 241, N-(2,2-Difluoroethyl)-5-fluoro-2-((4-(7-(((2S,5R)-5-((4-fluoro-1-methyl-1H-pyrazole)-3-sulfonamido)tetrahydro-2H-pyran-2-yl)methyl)-2,7-diazaspiro[3.5]nonan-2-yl)pyrimidin-5-yl)oxy)-N-isopropylbenzamide] | – | hERG % Remaining 30 μM [2]: ++ (“++” means ≥33% and <66%); Ki [3]: < 1 nM
5 | CC(C)N(C(=O)c1cc(F)ccc1Oc1cncnc1N1CC2(CCN(C[C@@H]3CC[C@@H](NS(=O)(=O)N4CCC4)CO3)CC2)C1)C1COC1 [Compound 248, 2-((4-(7-(((2S,5R)-5-(Azetidine-1-sulfonamido)tetrahydro-2H-pyran-2-yl)methyl)-2,7-diazaspiro[3.5]nonan-2-yl)pyrimidin-5-yl)oxy)-5-fluoro-N-isopropyl-N-(oxetan-3-yl)benzamide] | – | hERG % Remaining 30 μM [2]: +++ (“+++” means ≥66%); Ki [3]: < 1 nM
6 | CC(C)N(C(=O)c1cc(F)ccc1Oc1cncnc1N1CC2(CCN(C[C@@H]3CC[C@@H](NS(=O)(=O)N(C)C)CO3)CC2)C1)C1COC1 [Compound 249, 2-((4-(7-(((2S,5R)-5-((N,N-Dimethylsulfamoyl)amino)tetrahydro-2H-pyran-2-yl)methyl)-2,7-diazaspiro[3.5]nonan-2-yl)pyrimidin-5-yl)oxy)-5-fluoro-N-isopropyl-N-(oxetan-3-yl)benzamide] | – | hERG % Remaining 30 μM [2]: +++ (“+++” means ≥66%); Ki [3]: < 1 nM
7 | CCS(=O)(=O)N[C@@H]1CC[C@@H](CN2CCC3(CC2)CN(c2ncncc2Oc2ccc(F)cc2C(=O)N(C(C)C)[C@@H]2CC[C@@H]2O)C3)OC1 [Compound 258, 2-((4-(7-(((2S,5R)-5-(Ethylsulfonamido)tetrahydro-2H-pyran-2-yl)methyl)-2,7-diazaspiro[3.5]nonan-2-yl)pyrimidin-5-yl)oxy)-5-fluoro-N-((1R,2S)-2-hydroxycyclobutyl)-N-isopropylbenzamide] | – | hERG % Remaining 10 μM ([2]; 10 μM compound): +++ (“+++” means ≥66%); hERG % Remaining 30 μM [2]: ++ (“++” means ≥33% and <66%); EC50 [3]: < 50 nM; Ki [3]: < 1 nM
8 | CCN(C(=O)c1cc(F)ccc1Oc1cncnc1N1CC2(CCN(C[C@@H]3CC[C@@H](NS(C)(=O)=O)CO3)CC2)C1)C(C)C [Example 1, N-Ethyl-5-fluoro-N-isopropyl-2-((4-(7-(((2S,5R)-5-(methylsulfonamido)tetrahydro-2H-pyran-2-yl)methyl)-2,7-diazaspiro[3.5]nonan-2-yl)pyrimidin-5-yl)oxy)benzamide] | < 100 | –
9 | CCN(C(=O)c1cc(F)ccc1Oc1cncnc1N1CC2(CCN(C[C@@H]3CC[C@@H](NS(=O)(=O)CC)CO3)CC2)C1)C(C)C [Example 2, N-Ethyl-2-((4-(7-(((2S,5R)-5-(ethylsulfonamido)tetrahydro-2H-pyran-2-yl)methyl)-2,7-diazaspiro[3.5]nonan-2-yl)pyrimidin-5-yl)oxy)-5-fluoro-N-isopropylbenzamide] | < 100 | –
10 | CCN(C(=O)c1cc(F)ccc1Oc1cncnc1N1CC2(CCN(C[C@@H]3CC[C@@H](NS(=O)(=O)C(C)C)CO3)CC2)C1)C(C)C [Example 3, N-Ethyl-5-fluoro-N-isopropyl-2-((4-(7-(((2S,5R)-5-((1-methylethyl)sulfonamido)tetrahydro-2H-pyran-2-yl)methyl)-2,7-diazaspiro[3.5]nonan-2-yl)pyrimidin-5-yl)oxy)benzamide] | < 100 | –
11 | CCN(C(=O)c1cc(F)ccc1Oc1cncnc1N1CC2(CCN(C[C@@H]3CC[C@@H](NS(=O)(=O)C4CC4)CO3)CC2)C1)C(C)C [Example 4, 2-((4-(7-(((2S,5R)-5-(Cyclopropanesulfonamido)tetrahydro-2H-pyran-2-yl)methyl)-2,7-diazaspiro[3.5]nonan-2-yl)pyrimidin-5-yl)oxy)-N-ethyl-5-fluoro-N-isopropylbenzamide] | < 100 | –
12 | CCN(C(=O)c1cc(F)ccc1Oc1cncnc1N1CC2(CCN(C[C@@H]3CC[C@@H](NS(=O)(=O)C4COC4)CO3)CC2)C1)C(C)C [Example 5, N-Ethyl-5-fluoro-N-isopropyl-2-((4-(7-(((2S,5R)-5-(oxetane-3-sulfonamido)tetrahydro-2H-pyran-2-yl)methyl)-2,7-diazaspiro[3.5]nonan-2-yl)pyrimidin-5-yl)oxy)benzamide] | < 100 | –
13 | CCN(C(=O)c1cc(F)ccc1Oc1cncnc1N1CC2(CCN(C[C@@H]3CC[C@@H](NS(=O)(=O)C4CCC4)CO3)CC2)C1)C(C)C [Example 6, 2-((4-(7-(((2S,5R)-5-(Cyclobutanesulfonamido)tetrahydro-2H-pyran-2-yl)methyl)-2,7-diazaspiro[3.5]nonan-2-yl)pyrimidin-5-yl)oxy)-N-ethyl-5-fluoro-N-isopropylbenzamide] | < 100 | –
14 | CCN(C(=O)c1cc(F)ccc1Oc1cncnc1N1CC2(CCN(C[C@@H]3CC[C@@H](NS(=O)(=O)CC4CC4)CO3)CC2)C1)C(C)C [Example 7, 2-((4-(7-(((2S,5R)-5-((Cyclopropylmethyl)sulfonamido)tetrahydro-2H-pyran-2-yl)methyl)-2,7-diazaspiro[3.5]nonan-2-yl)pyrimidin-5-yl)oxy)-N-ethyl-5-fluoro-N-isopropylbenzamide] | < 100 | –
15 | CCN(C(=O)c1cc(F)ccc1Oc1cncnc1N1CC2(CCN(C[C@@H]3CC[C@@H](NS(=O)(=O)CCOC)CO3)CC2)C1)C(C)C [Example 8, N-Ethyl-5-fluoro-N-isopropyl-2-((4-(7-(((2S,5R)-5-((2-methoxyethyl)sulfonamido)tetrahydro-2H-pyran-2-yl)methyl)-2,7-diazaspiro[3.5]nonan-2-yl)pyrimidin-5-yl)oxy)benzamide] | < 100 | –
16 | CCCS(=O)(=O)N[C@@H]1CC[C@@H](CN2CCC3(CC2)CN(c2ncncc2Oc2ccc(F)cc2C(=O)N(CC)C(C)C)C3)OC1 [Example 9, N-Ethyl-5-fluoro-N-isopropyl-2-((4-(7-(((2S,5R)-5-(propylsulfonamido)tetrahydro-2H-pyran-2-yl)methyl)-2,7-diazaspiro[3.5]nonan-2-yl)pyrimidin-5-yl)oxy)benzamide] | < 100 | –
17 | CCN(C(=O)c1cc(F)ccc1Oc1cncnc1N1CC2(CCN(C[C@@H]3CC[C@@H](NC(=O)OC(C)(C)C)CO3)CC2)C1)C(C)C [Example 11, tert-Butyl ((3R,6S)-6-((2-(5-(2-(ethyl(isopropyl)carbamoyl)-4-fluorophenoxy)pyrimidin-4-yl)-2,7-diazaspiro[3.5]nonan-7-yl)methyl)tetrahydro-2H-pyran-3-yl)carbamate] | < 100 | –
18 | CC(C)N(C(=O)c1cc(F)ccc1Oc1cncnc1N1CC2(CCN(C[C@@H]3CC[C@@H](NS(C)(=O)=O)CO3)CC2)C1)C(C)C [Example 12, 5-Fluoro-N,N-diisopropyl-2-((4-(7-(((2S,5R)-5-(methylsulfonamido)tetrahydro-2H-pyran-2-yl)methyl)-2,7-diazaspiro[3.5]nonan-2-yl)pyrimidin-5-yl)oxy)benzamide] | < 100 | –
